Values of other authors as cited in US20250275953A1, “VODOBATINIB FOR REDUCING PROGRESSION OF PARKINSON'S DISEASE” (Sun Pharma Advanced Research Company Ltd., priority 2022, published 2025).

Settings: nilotinib 150 and 300 mg; cited from earlier work

In the case of `Cc1cn(-c2cc(NC(=O)c3ccc(C)c(Nc4nccc(-c5cccnc5)n4)c3)cc(C(F)(F)F)c2)cn1` [Nilotinib, nilotinib], the “efficacy in Parkinson's disease patients” value is given as “not efficacious”.
